Publication PMC9313566 (Basic & Clinical Pharmacology & Toxicology, 2022)

Molecular target: haemoglobin (Hb) (Homo sapiens, UniProt P68871+P69905)
Assay: SPR
Format: binding

Chain of haemoglobin (Hb) (P69905 2-142): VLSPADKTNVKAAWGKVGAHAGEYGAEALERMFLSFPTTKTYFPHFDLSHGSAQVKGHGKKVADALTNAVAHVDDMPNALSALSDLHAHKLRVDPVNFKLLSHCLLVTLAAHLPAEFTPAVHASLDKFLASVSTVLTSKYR
Chain of haemoglobin (Hb) (P68871 2-147): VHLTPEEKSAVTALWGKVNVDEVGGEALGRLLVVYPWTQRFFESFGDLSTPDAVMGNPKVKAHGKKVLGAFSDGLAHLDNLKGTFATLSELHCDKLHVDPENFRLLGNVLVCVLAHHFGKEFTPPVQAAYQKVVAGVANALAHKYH

Kd [µM]	Structure (SMILES)
3.8	C/C1=C\CC[C@H](C)C(=O)C[C@@H](C(C)C)C(=O)C1 [curdione]
75.4	CC(C)=C1C/C=C(\C)CC/C=C(\C)CC1=O [germacrone]
18.2	C/C1=C\Cc2c(C)coc2C/C(C)=C/CC1 [furanodiene]
2.27	C=C[C@]1(C)CC[C@@H](C(=C)C)C[C@H]1C(=C)C [β-elemene]
